Reference: patent US12509447B2, “Small molecule compound” (Technoderma Medicines Pte Ltd, priority 2019, dated 2025)
Blank lines part the entries; values can stand above or below the molecule they belong to.

Experiments:
Format in all cases: biochemical
Tyk2 = Tyk2 (Homo sapiens, UniProt P29597); experiment: Inhibition of JAK kinase activity, EZ Reader microfluidic phosphorylation of peptide substrate: Tyk2; settings: Tyk2 kinase 1 nM; highest final concentration 10 μM, 1:3 serial dilution, 8 points, duplicates
Tyk2, sequence (P29597 whole entry): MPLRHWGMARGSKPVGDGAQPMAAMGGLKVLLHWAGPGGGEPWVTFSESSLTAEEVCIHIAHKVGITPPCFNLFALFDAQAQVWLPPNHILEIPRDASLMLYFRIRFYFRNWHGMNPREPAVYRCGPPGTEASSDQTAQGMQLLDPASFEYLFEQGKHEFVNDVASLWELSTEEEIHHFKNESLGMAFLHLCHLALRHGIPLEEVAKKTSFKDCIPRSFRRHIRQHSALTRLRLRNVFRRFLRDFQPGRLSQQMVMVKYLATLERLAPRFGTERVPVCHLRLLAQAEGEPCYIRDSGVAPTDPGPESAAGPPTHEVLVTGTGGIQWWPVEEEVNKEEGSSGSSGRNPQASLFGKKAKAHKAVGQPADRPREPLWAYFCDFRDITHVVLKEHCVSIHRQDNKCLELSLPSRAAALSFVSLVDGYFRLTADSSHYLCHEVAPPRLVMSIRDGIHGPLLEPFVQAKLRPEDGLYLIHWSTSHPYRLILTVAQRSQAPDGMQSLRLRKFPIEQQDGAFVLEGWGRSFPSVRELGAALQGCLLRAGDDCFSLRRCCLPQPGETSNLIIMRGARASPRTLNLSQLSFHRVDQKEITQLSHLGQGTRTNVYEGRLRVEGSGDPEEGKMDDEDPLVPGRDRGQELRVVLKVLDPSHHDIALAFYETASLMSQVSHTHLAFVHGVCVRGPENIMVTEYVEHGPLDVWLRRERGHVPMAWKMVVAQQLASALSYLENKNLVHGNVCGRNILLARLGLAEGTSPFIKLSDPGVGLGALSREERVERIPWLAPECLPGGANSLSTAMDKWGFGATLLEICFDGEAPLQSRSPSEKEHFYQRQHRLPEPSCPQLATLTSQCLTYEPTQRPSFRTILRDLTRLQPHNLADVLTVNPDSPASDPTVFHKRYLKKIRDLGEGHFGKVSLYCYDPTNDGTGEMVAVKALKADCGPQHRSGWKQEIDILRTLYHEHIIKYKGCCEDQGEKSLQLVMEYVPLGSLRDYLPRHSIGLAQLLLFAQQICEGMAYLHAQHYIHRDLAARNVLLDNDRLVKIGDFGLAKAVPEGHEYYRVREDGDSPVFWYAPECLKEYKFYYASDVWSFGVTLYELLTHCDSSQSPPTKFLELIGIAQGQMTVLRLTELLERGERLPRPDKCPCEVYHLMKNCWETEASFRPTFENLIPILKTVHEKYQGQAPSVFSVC
Method in brief: (§1)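 Microfluidic mobility-shift assay reading fluorescent peptide substrate and product; kinases at 20 nM (JAK1) or 1 nM (JAK2, JAK3, Tyk2) in pH 7.4 HEPES with 10 mM MgCl2, run at room temperature to 20-30% conversion, then stopped with EDTA. Compounds tested from 10 μM top, 1:3 over 8 points in duplicate; IC50 fitted from % conversion.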

JAK1 = JAK1 (Homo sapiens, UniProt P23458); experiment: Inhibition of JAK kinase activity, EZ Reader microfluidic phosphorylation of peptide substrate: JAK1; settings: JAK1 kinase 20 nM; highest final concentration 10 μM, 1:3 serial dilution, 8 points, duplicates
JAK1, sequence (P23458 whole entry): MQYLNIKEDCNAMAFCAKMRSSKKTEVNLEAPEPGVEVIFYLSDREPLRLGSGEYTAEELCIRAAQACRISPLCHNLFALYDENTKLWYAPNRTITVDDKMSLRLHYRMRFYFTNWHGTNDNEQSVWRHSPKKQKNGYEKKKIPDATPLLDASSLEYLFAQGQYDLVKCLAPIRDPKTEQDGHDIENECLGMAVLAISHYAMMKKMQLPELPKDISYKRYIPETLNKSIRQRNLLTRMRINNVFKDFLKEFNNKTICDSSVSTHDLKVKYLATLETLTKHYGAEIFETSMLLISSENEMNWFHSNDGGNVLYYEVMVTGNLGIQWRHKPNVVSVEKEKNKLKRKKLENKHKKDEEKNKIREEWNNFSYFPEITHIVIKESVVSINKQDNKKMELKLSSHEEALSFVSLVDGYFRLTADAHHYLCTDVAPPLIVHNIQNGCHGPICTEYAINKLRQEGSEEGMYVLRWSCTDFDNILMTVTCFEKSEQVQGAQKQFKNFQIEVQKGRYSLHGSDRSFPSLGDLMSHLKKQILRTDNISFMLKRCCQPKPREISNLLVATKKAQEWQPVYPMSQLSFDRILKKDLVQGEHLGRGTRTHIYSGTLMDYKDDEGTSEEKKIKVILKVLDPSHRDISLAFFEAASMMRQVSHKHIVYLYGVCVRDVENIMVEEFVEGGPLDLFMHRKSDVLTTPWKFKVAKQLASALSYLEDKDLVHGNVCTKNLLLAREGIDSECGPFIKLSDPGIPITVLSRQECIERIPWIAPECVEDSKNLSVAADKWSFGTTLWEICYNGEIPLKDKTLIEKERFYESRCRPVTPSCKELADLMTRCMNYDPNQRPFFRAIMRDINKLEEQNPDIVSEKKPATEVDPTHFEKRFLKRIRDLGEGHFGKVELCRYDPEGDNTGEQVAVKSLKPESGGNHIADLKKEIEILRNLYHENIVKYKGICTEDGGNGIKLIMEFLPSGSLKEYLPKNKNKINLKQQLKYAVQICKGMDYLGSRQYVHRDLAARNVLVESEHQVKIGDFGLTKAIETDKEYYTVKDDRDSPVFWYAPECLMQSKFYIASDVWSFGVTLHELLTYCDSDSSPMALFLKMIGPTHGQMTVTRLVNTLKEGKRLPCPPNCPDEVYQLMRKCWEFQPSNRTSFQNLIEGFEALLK
Method in brief: as §1

JAK3 = biological target: T1, JAK3 (Homo sapiens, UniProt P52333); experiment: Inhibition of JAK kinase activity, EZ Reader microfluidic phosphorylation of peptide substrate: JAK3; settings: JAK3 kinase 1 nM; highest final concentration 10 μM, 1:3 serial dilution, 8 points, duplicates
T1 sequence (P52333 1-1124): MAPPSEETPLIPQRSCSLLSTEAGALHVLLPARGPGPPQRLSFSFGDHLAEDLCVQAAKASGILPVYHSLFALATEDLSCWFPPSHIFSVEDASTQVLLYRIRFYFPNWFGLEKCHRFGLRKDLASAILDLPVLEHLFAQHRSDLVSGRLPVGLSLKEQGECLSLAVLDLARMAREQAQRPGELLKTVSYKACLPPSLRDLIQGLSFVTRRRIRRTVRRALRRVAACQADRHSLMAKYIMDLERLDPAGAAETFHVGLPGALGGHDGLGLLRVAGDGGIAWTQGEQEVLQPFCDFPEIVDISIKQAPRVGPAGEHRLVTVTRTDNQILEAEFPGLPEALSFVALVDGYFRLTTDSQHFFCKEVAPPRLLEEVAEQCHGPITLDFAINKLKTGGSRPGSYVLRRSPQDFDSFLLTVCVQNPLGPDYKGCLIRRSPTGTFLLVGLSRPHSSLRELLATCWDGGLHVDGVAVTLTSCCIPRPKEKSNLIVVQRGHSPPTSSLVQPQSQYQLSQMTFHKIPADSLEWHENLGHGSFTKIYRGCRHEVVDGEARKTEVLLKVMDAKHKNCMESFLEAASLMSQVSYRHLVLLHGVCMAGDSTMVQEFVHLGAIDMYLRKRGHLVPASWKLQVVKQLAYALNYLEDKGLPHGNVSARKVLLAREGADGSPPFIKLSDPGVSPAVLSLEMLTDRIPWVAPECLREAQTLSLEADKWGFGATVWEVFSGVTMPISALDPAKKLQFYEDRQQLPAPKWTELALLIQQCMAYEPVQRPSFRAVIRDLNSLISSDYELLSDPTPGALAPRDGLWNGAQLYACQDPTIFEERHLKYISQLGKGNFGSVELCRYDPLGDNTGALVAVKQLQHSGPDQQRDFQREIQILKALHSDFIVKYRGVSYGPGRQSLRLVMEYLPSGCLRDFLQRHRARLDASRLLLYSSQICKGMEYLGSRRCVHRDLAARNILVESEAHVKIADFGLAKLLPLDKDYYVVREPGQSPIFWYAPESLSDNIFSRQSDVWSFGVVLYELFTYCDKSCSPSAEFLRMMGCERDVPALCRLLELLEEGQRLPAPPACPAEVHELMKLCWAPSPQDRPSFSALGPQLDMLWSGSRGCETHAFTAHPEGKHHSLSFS
Method in brief: as §1

JAK2 = JAK2 (Homo sapiens, UniProt O60674); experiment: Inhibition of JAK kinase activity, EZ Reader microfluidic phosphorylation of peptide substrate: JAK2; settings: JAK2 kinase 1 nM; highest final concentration 10 μM, 1:3 serial dilution, 8 points, duplicates
JAK2, sequence (O60674 whole entry): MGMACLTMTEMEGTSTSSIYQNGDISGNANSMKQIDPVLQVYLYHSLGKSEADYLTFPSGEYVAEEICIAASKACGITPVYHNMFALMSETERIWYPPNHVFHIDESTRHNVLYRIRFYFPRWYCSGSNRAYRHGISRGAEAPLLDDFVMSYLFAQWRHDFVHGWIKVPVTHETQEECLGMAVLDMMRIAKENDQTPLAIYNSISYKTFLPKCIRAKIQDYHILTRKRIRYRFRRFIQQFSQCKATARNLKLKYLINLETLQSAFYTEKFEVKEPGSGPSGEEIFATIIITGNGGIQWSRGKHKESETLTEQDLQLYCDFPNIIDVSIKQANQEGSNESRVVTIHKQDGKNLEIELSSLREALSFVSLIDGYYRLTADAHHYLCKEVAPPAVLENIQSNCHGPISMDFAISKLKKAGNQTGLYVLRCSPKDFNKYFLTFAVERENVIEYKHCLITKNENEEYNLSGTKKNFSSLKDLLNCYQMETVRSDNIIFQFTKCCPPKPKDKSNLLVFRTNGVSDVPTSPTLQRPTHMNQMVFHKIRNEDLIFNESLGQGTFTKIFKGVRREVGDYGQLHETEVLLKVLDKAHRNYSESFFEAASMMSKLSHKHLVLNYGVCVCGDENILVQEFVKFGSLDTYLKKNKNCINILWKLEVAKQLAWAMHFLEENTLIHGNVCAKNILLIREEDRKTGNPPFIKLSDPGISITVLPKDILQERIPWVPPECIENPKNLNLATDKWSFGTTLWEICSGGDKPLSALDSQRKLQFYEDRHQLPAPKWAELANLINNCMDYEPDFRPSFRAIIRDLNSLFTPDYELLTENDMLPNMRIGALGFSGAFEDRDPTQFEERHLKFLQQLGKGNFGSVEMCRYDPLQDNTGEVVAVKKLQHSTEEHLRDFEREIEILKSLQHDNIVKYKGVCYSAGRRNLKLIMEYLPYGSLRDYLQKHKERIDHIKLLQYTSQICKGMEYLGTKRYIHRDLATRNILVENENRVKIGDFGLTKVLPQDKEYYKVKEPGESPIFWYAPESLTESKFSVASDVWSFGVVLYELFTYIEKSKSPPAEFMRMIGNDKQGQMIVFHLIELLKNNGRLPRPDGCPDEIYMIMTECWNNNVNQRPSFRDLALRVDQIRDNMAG
Method in brief: as §1

IC50 (Tyk2): 0.1 to 1 µM
IC50 (JAK1): 0.1 to 1 µM
IC50 (JAK3): ≥ 10 µM
IC50 (JAK2): 0.1 to 1 µM
Compound: Cn1cc(Nc2nccc(-c3ccn(C4(CC#N)CN(C(=O)C5CC5)C4)c3)n2)cn1 [TDM-180772, 2-(1-(cyclopropanecarbonyl)-3-(3-(2-((1-methyl-1H-pyrazol-4-yl)amino)pyrimidin-4-yl)-1H-pyrrol-1-yl)azetidinpyridin-3-yl)acetonitrile]

IC50 (Tyk2): 0.1 to 1 µM
IC50 (JAK1): 0.1 to 1 µM
IC50 (JAK3): ≥ 10 µM
IC50 (JAK2): 0.1 to 1 µM
Compound: Cn1cc(Nc2nccc(-c3ccn(C4(CC#N)CN(C(=O)CC#N)C4)c3)n2)cn1 [TDM-180775, 3-(3-(cyanomethyl)-3-(3-(2-((1-methyl-1H-pyrazol-4-yl)amino)pyrimidin-4-yl)-1H-pyrrol-1-yl)azetidinpiperazin-1-yl)-3-oxypropionitrile]

IC50 (Tyk2): < 0.1 µM
IC50 (JAK1): < 0.1 µM
IC50 (JAK3): 1 to 10 µM
IC50 (JAK2): < 0.1 µM
Compound: Cn1cc(Nc2nccc(-c3ccn(C4(CC#N)CN(C(=O)C5CC5(F)F)C4)c3)n2)cn1 (centres unmarked) [TDM-180776, 2-(1-(2,2-difluorocyclo-1-carbonyl)-3-(3-(2-((1-methyl-1H-pyrazol-4-yl)amino)pyrimidin-4-yl)-1H-pyrrol-1-yl)azetidin-3-yl)acetonitrile]

IC50 (Tyk2): < 0.1 µM
IC50 (JAK1): < 0.1 µM
IC50 (JAK3): 1 to 10 µM
IC50 (JAK2): 0.1 to 1 µM
Compound: Cn1cc(Nc2nccc(-c3ccn(C4(CC#N)CN(C(=O)CC(F)(F)F)C4)c3)n2)cn1 [TDM-180778]

IC50 (Tyk2): 0.1 to 1 µM
IC50 (JAK1): 0.1 to 1 µM
IC50 (JAK3): ≥ 10 µM
IC50 (JAK2): 0.1 to 1 µM
Compound: CCCS(=O)(=O)N1CC(CC#N)(n2ccc(-c3ccnc(Nc4cnn(C)c4)n3)c2)C1 [TDM-180785, 2-(3-(3-(2-((1-methyl-1H-pyrazol-4-yl)amino)pyrimidin-4-yl)-1H-pyrrol-1-yl)-1-(propylsulfonyl)azetidinpyridin-3-yl)acetonitrile]

IC50 (Tyk2): 0.1 to 1 µM
IC50 (JAK1): 0.1 to 1 µM
IC50 (JAK3): 1 to 10 µM
IC50 (JAK2): 0.1 to 1 µM
Compound: CCCS(=O)(=O)N1CC(CC#N)(n2cc(-c3ccnc(Nc4cnn(C)c4)n3)cn2)C1 [TDM-180794, 2-(3-(4-(2-((1-methyl-1H-pyrazol-4-yl)amino)pyrimidin-4-yl)-1H-pyrazol-1-yl)-1-(propylsulfonyl)azacyclobutanpyridin-3-yl)acetonitrile]

IC50 (Tyk2): 0.1 to 1 µM
IC50 (JAK1): 1 to 10 µM
IC50 (JAK3): ≥ 10 µM
IC50 (JAK2): 0.1 to 1 µM
Compound: Cn1cc(Nc2nccc(-c3cnn(C4(CC#N)CN(S(=O)(=O)Cc5ccccc5)C4)c3)n2)cn1 [TDM-180795, 2-(1-(benzylsulfonyl)-3-(4-(2-((1-methyl-1H-pyrazol-4-yl)amino)pyrimidin-4-yl)-1H-pyrazol-1-yl)azetidinpyridin-3-yl)acetonitrile]

IC50 (Tyk2): 0.1 to 1 µM
IC50 (JAK1): 1 to 10 µM
IC50 (JAK3): ≥ 10 µM
IC50 (JAK2): 0.1 to 1 µM
Compound: CCOCCS(=O)(=O)N1CC(CC#N)(n2cc(-c3ccnc(Nc4cnn(C)c4)n3)cn2)C1 [TDM-180796, 2-(1-((2-ethoxyethyl)sulfonyl)-3-(4-(2-((1-methyl-1H-pyrazol-4-yl)amino)pyrimidin-4-yl)-1H-pyrazol-1-yl)azetidin-3-yl)acetonitrile]

IC50 (Tyk2): 0.1 to 1 µM
IC50 (JAK1): 0.1 to 1 µM
IC50 (JAK3): ≥ 10 µM
IC50 (JAK2): 0.1 to 1 µM
Compound: Cn1cc(Nc2nccc(-c3cnn(C4(CC#N)CN(S(=O)(=O)C5CCOCC5)C4)c3)n2)cn1 [TDM-180797, 2-(3-(4-(2-((1-methyl-1H-pyrazol-4-yl)amino)pyrimidin-4-yl)-1H-pyrazol-1-yl)-1-((tetrahydro-2H-pyran-4-yl)sulfonyl)azetidin-3-yl)acetonitrile]

Continued, molecule first:

Compound: Cn1cc(Nc2nccc(-c3cnn(C4CCN(C(=O)C5CC5(F)F)CC4)c3)n2)cn1 (centres unmarked) [TDM-180679, (2,2-difluorocyclopropyl)(4-(4-(2-((1-methyl-1H-pyrazol-4-yl)amino)pyrimidin-4-yl)-1H-pyrazol-1-yl)piperidin-1-yl)ketone]
IC50 (Tyk2): ≥ 10 µM
IC50 (JAK1): ≥ 10 µM
IC50 (JAK3): ≥ 10 µM
IC50 (JAK2): ≥ 10 µM

Compound: Cn1cc(Nc2nccc(-c3cnn(C4CCN(C(=O)CC#N)CC4)c3)n2)cn1 [TDM-180680, 3-(4-(4-(2-((1-methyl-1H-pyrazol-4-yl)amino)pyrimidin-4-yl)-1H-pyrazol-1-yl)piperidin-1-yl)3-oxopropanenitrile]
IC50 (Tyk2): ≥ 10 µM
IC50 (JAK1): ≥ 10 µM
IC50 (JAK3): ≥ 10 µM
IC50 (JAK2): ≥ 10 µM

Compound: Cn1cc(Nc2nccc(-c3cnn(C4CCN(C(=O)CO)CC4)c3)n2)cn1 [TDM-180681, 2-hydroxy-1-(4-(4-(2-((1-methyl-1H-pyrazol-4-yl)amino)pyrimidin-4-yl)-1H-pyrazol-1-yl)piperidin-1-yl)ethanone]
IC50 (Tyk2): ≥ 10 µM
IC50 (JAK1): ≥ 10 µM
IC50 (JAK3): ≥ 10 µM
IC50 (JAK2): ≥ 10 µM

Compound: Cn1cc(Nc2nccc(-c3cnn(C4(CC#N)CN(C(=O)C5CC5(F)F)C4)c3)n2)cn1 (centres unmarked) [TDM-180726, 2-(1-(2,2-difluorocyclo-1-carbonyl)-3-(4-(2-((1-methyl-1H-pyrazol-4-yl)amino)pyrimidin-4-yl)-1H-pyrazol-1-yl)azetidin-3-yl)acetonitrile]
IC50 (Tyk2): 0.1 to 1 µM
IC50 (JAK1): 0.1 to 1 µM
IC50 (JAK3): 1 to 10 µM
IC50 (JAK2): 0.1 to 1 µM

Compound: Cn1cc(Nc2nccc(-c3cnn(C4(CC#N)CN(C(=O)CC#N)C4)c3)n2)cn1 [TDM-180727, 3-(3-(cyanomethyl)-3-(4-(2-((1-methyl-1H-pyrazol-4-yl)amino)pyrimidin-4-yl)-1H-pyrazol-1-yl)azetidinpiperazin-1-yl)-3-oxypropionitrile]
IC50 (Tyk2): 0.1 to 1 µM
IC50 (JAK1): 0.1 to 1 µM
IC50 (JAK3): ≥ 10 µM
IC50 (JAK2): 1 to 10 µM

Compound: CCS(=O)(=O)N1CC(CC#N)(n2cc(-c3ccnc(Nc4cnn(C)c4)n3)cn2)C1 [TDM-180728, 2-(1-(ethylsulfonyl)-3-(4-(2-((1-methyl-1H-pyrazol-4-yl)amino)pyrimidin-4-yl)-1H-pyrazol-1-yl)azetidinpyridin-3-yl)acetonitrile]
IC50 (Tyk2): 0.1 to 1 µM
IC50 (JAK1): 0.1 to 1 µM
IC50 (JAK3): 1 to 10 µM
IC50 (JAK2): < 0.1 µM

Compound: Cn1cc(Nc2nccc(-c3cnn(C4(CC#N)CN(C(=O)CC(F)(F)F)C4)c3)n2)cn1 [TDM-180752, 2-(3-(4-(2-((1-methyl-1H-pyrazol-4-yl)amino)pyrimidin-4-yl)-1H-pyrazol-1-yl)-1-(3,3,3-trifluoropropionyl)azetidin-3-yl)acetonitrile]
IC50 (Tyk2): 0.1 to 1 µM
IC50 (JAK1): 0.1 to 1 µM
IC50 (JAK3): 1 to 10 µM
IC50 (JAK2): 0.1 to 1 µM

Compound: Cn1cc(Nc2nccc(-c3cnn(C4(CC#N)CN(C(=O)C5CC5)C4)c3)n2)cn1 [TDM-180753, 2-(1-(cyclopropanecarbonyl)-3-(4-(2-((1-methyl-1H-pyrazol-4-yl)amino)pyrimidin-4-yl)-1H-pyrazol-1-yl)azetidinpyridin-3-yl)acetonitrile]
IC50 (Tyk2): 0.1 to 1 µM
IC50 (JAK1): 0.1 to 1 µM
IC50 (JAK3): ≥ 10 µM
IC50 (JAK2): 1 to 10 µM

Compound: Cn1cc(Nc2nccc(-c3cnn(C4(CC#N)CN(S(=O)(=O)C5CC5)C4)c3)n2)cn1 [TDM-180766, 2-(1-(cyclopropylsulfonyl)-3-(4-(2-((1-methyl-1H-pyrazol-4-yl)amino)pyrimidin-4-yl)-1H-pyrazol-1-yl)azetidinpyridin-3-yl)acetonitrile]
IC50 (Tyk2): < 0.1 µM
IC50 (JAK1): 0.1 to 1 µM
IC50 (JAK3): 1 to 10 µM
IC50 (JAK2): < 0.1 µM

Compound: Cn1cc(Nc2nccc(-c3ccn(C4(CC#N)CN(S(=O)(=O)C5CC5)C4)c3)n2)cn1 [TDM-180770, 2-(1-(cyclopropylsulfonyl)-3-(3-(2-((1-methyl-1H-pyrazol-4-yl)amino)pyrimidin-4-yl)-1H-pyrrol-1-yl)azetidinpyridin-3-yl)acetonitrile]
IC50 (Tyk2): < 0.1 µM
IC50 (JAK1): 0.1 to 1 µM
IC50 (JAK3): 1 to 10 µM
IC50 (JAK2): 0.1 to 1 µM

Compound: CCS(=O)(=O)N1CC(CC#N)(n2ccc(-c3ccnc(Nc4cnn(C)c4)n3)c2)C1 [TDM-180771, 2-(1-(ethylsulfonyl)-3-(3-(2-((1-methyl-1H-pyrazol-4-yl)amino)pyrimidin-4-yl)-1H-pyrrol-1-yl)azetidinpyridin-3-yl)acetonitrile]
IC50 (Tyk2): < 0.1 µM
IC50 (JAK1): 0.1 to 1 µM
IC50 (JAK3): 1 to 10 µM
IC50 (JAK2): < 0.1 µM
